Data set [1] concerns P.mirabilis MB4955. The data set is described as follows: In vitro antibacterial activity, agar plate dilution method (MIC). The class given is cell-based. The note with it: Proteus mirabilis, MH agar, inoculum 10^6CFU/ml, 37 °C, 16 hours, read-out: Minimum inhibitory Concentration (MIC). The protocol:
(§1) One platinum loopful (inoculum : 10^6CFU/ml) of each test microorganism cultured overnight in Mueller Hinton broth was inoculated into Mueller Hinton agars (MH agar). These media contained an antimicrobial agent in various concentrations. Each test microorganism was cultured at 37 °C for 16 hours, and then the minimum inhibitory concentration (MIC: µg/ml) was assayed. Accordingly, the minimum inhibitory concentrations of compounds of the invention were assayed.

For data set [2], the system named is S.aureus BB5939. Described as above. It counts as cell-based. The note with it: Staphylococcus aureus; S.aureus BB5939 (β-lactamase-producing bacterium); MH agar, inoculum 10^6CFU/ml, 37 °C, 16 hours; read-out: Minimum inhibitory Concentration (MIC). On the procedure:
as §1

The subject of data set [3] is S.aureus JS1. The data set is described as above. The class given is cell-based. The note with it: Staphylococcus aureus, MH agar, inoculum 10^6CFU/ml, 37 °C, 16 hours, read-out: Minimum inhibitory Concentration (MIC). On the procedure: as §1
In data set [4] the test system is S.aureus MB4970. Described as above. The class given is cell-based. The following applies: Staphylococcus aureus, MH agar, inoculum 10^6CFU/ml, 37 °C, 16 hours, read-out: Minimum inhibitory Concentration (MIC). On the procedure:
as §1

In data set [5] the test system is white rabbits. The data set is described as follows: Renal toxicity test using white rabbits. It counts as in vivo. The following applies: for Blood urea nitrogen before administration / Creatinine before administration: just before the administration (baseline). On the procedure:
The compound of Example I-72 was made into a liquid with sterilized distilled water for injection so that the drug liquid concentration became 10 %, and intraperitoneally administered once in a dose of 225 mg/kg into 18-week-old male white rabbits from Japan (n=3 per each group). As for a control group, 0.9 % physiological saline was intraperitoneally administered once in the same manner as above. Serum urea nitrogen and creatinine were assayed just before the administration and about 48 hours after the administration. After the blood drawing, each rabbit was killed with leaving them alone under anesthetization and roughly observed, and then autopsy was carried out only on the kidney fixed with neutral 10 % formalin buffer. Each kidney preparation was prepared by a usual method, stained with hematoxylin and eosin and observed by a microscope.

The test system of data set [6] is S.aureus CSa929. In words: Agar plate dilution method (MIC), media supplemented with 2 % sodium chloride. The class given is cell-based. The following applies: Staphylococcus aureus, 35 °C, 48 hours, read-out: Minimum inhibitory Concentration (MIC). The protocol: (§2) One platinum loopful (inoculum : 10^6CFU/ml) of each test microorganism cultured overnight in Mueller Hinton broth was inoculated into Mueller Hinton agars (MH agar). These media contained an antimicrobial agent in various concentrations. […] Accordingly, the minimum inhibitory concentrations of compounds of the invention were assayed. Table 1 The minimum inhibitory concentrations (MIC: µg/ml) of compounds of the invention were assayed according to the above agar plate dilution method using the media supplemented with 2 % sodium chloride as test media and using the culture conditions of 35 °C and 48 hours.

Data set [7] deals with S.aureus MB5393. The data set is described as above. It counts as cell-based. The following applies: Staphylococcus aureus, 35 °C, 48 hours, read-out: Minimum inhibitory Concentration (MIC). The protocol:
as §2

In data set [8] the test system is ICR male mice. The data set is described as follows: Acute toxicity in mice. The note with it: once into the tail vein, observed 5 days. The class given is in vivo. On the procedure: The compound of Example I-26 was used as a representative compound. The test compound was diluted with distilled water for injection so that the drug liquid concentration became 60.75 mg/ml, and administered once, in an administration rate of 10 to 20 µl/min, into the tail vein of each of 4-week-old ICR male mice, according to "Commentary on GLP Standard and Toxicity Test Method Guidline" (supervised by the Examination Section, Drug Secretariat, the Ministry of Welfare; Yakuji-Nippo Co.). The state of death and the general symptoms of mobility were observed over a period of 5 days after the administration.

The test system of data set [9] is SD rats. The data set is described as follows: Toxicity test on the central nervous system in rats. The following applies: 200 µg/rat into the lateral ventricle, n=5, observed for 30 minutes.
Excerpt: A chronic guide cannula was inserted into the right lateral ventricle of each of 7-week-old male SD rats (n=5), and fixed by a dental range.
The mark [10] stands for this setting: Mean, n=3, about 48 hours after 225 mg/kg intraperitoneally once.
Where [11] appears, read: individual rabbit, about 48 hours after 225 mg/kg intraperitoneally once.
Where [12] appears, read: individual rabbit, 225 mg/kg intraperitoneally once, 225 mg/kg.

Values after ≈ are worked out from the molar mass of the structure shown. Values joined by “and” are separate entries in the source; they are usually repeats but may differ in a detail not shown here. Equal values may be shown once.

Turning to `C[C@@H](O)[C@H]1C(=O)N2C(C(=O)O)=C(SC(=S)N(C)C)[C@H](C)[C@H]12` [Example I-63], the MIC amounted to 0.1 µg/mL (≈ 0.303 µM) in data set [1], 1.56 µg/mL (≈ 4.72 µM) in data set [2], 0.2 µg/mL (≈ 0.605 µM) in data set [3] and 25 µg/mL (≈ 75.7 µM) in data set [4].

Take `CNCC(=O)N1CCN(C(=S)SC2=C(C(=O)O)N3C(=O)[C@H]([C@@H](C)O)[C@H]3[C@H]2C)CC1` [Example I-41]: the MIC was 0.1 µg/mL (≈ 0.226 µM) in data set [1], 0.39 µg/mL (≈ 0.881 µM) in data set [2], 0.1 µg/mL (≈ 0.226 µM) in data set [3] and not above 0.006 µg/mL in [4].

As for `C[C@@H](O)[C@H]1C(=O)N2C(C(=O)O)=C(SC(=S)N(C)CCO)[C@H](C)[C@H]12` [Example I-72], the MIC in [1] amounted to 0.05 µg/mL (≈ 0.139 µM); in data set [2] it was 1.56 µg/mL (≈ 4.33 µM); in [3], 0.1 µg/mL (≈ 0.277 µM); in data set [4] it was 0.025 µg/mL (≈ 0.0694 µM). The “Blood urea nitrogen after administration” value in data set [5] (setting [10]) was 18.1 mg/dL; in data set [5] (setting [11]), 16.8 mg/dL and 16.6 mg/dL and 20.8 mg/dL. Also, the Creatinine after administration is 1.4 mg/dL in [5] (setting [10]); 1.3 mg/dl (2×) and 1.5 mg/dl in data set [5] (setting [11]). The “Blood urea nitrogen before administration” value in data set [5] (Mean, n=3) was 17.4 mg/dL; in [5] (setting [12]), 15.8 mg/dL and 16.8 mg/dL and 19.6 mg/dL. Moreover, the Creatinine before administration is 1.3 mg/dL in [5] (Mean, n=3); 1.2 mg/dL and 1.3 mg/dL and 1.4 mg/dL in data set [5] (setting [12]). Further, the “Opinion based on the autopsy” value in data set [5] (individual rabbit, kidney, about 48 hours after 225 mg/kg intraperitoneally once) is listed as “no abnormality”.

Turning to `C[C@@H](O)[C@H]1C(=O)N2C(C(=O)O)=C(SC(=S)N3CCc4ccccc43)[C@H](C)[C@H]12` [Example I-51], the MIC in data set [6] and in data set [7] was 0.39 µg/mL (≈ 0.964 µM) throughout.

As to `C[C@@H](O)[C@H]1C(=O)N2C(C(=O)O)=C(SC(=S)N3Cc4ccc(C[N+]56CC[N+](CC(N)=O)(CC5)CC6)cc4C3)[C@H](C)[C@H]12` [Example III-2], the MIC in data set [1] was 0.2 µg/mL; in data set [2], 0.39 µg/mL; in [3], 0.1 µg/mL; in data set [4] it was not above 0.006 µg/mL.

Regarding `C[C@@H](O)[C@H]1C(=O)N2C(C(=O)O)=C(SC(=S)N3CC=C(CN)CC3)[C@H](C)[C@H]12` [Example IV-5], the MIC is 0.05 µg/mL (≈ 0.126 µM) in data set [1], 0.39 µg/mL (≈ 0.981 µM) in [2], 0.1 µg/mL (≈ 0.252 µM) in data set [3] and not above 0.006 µg/mL in [4].

With `C[C@@H](O)[C@H]1C(=O)N2C(C(=O)O)=C(SC(=S)N3CCCC(O)CC3)[C@H](C)[C@H]12` (stereo partly drawn) [Example I-26], the MIC turned out to be 0.05 µg/mL (≈ 0.125 µM) in data set [1], 0.78 µg/mL (≈ 1.95 µM) in [2], 0.2 µg/mL (≈ 0.499 µM) in data set [3] and 0.012 µg/mL (≈ 0.03 µM) in data set [4]. In addition, the “General symptoms of mobility” value in data set [8] (1000 mg/kg), in data set [8] (1500 mg/kg) and in data set [8] (2000 mg/kg) was “No abnomality” in each case. The Surviving number was 2/2 in data set [8] (1000 mg/kg), 2/2 in [8] (1500 mg/kg) and 1/1 in [8] (2000 mg/kg). For the same molecule, the Case of death in data set [9] was 0/5.

(Values after patent publication EP0781773A1, “NOVEL CARBAPENEM DERIVATIVE” (BANYU PHARMACEUTICAL CO., LTD., priority 1994, dated 1996).)
